The values below come from PubChem BioAssay (NCI).

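Five concentrations, 48 hours, 96-well plates. Abbreviation: GI50, concentration required for 50% inhibition of growth. TGI denotes the concentration required for complete inhibition of growth.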

Common to all, as to experiment: NCI-60 cell line screen, 48 h
Assay [1] relates to T-47D breast.
Assay [2] concerns A498 renal.
The subject of assay [3] is HCT-15 colon.
Assay [4] concerns NCI-H460 lung.
The test system of assay [5] is RXF 393 renal.
Assay [6] deals with OVCAR-5 ovarian.
Assay [7] deals with HT29 colon.
Assay [8] concerns K-562 leukemia.

Consider `Cc1ccc2c(c1)c1nc3cc(C)c(C)cc3nc1n2CCN(C)C`, for which the GI50 was 3.34 µM in assay [1]; 1.77 µM in assay [2]; 1.91 µM in assay [3]; 2.69 µM in assay [4]; 1.32 µM in assay [5]; 2.4 µM in assay [6]. In addition, the GI50 in assay [7] is 1.23 µM; in assay [8], 2.6 µM. Also, the TGI is 17.7 µM in assay [1]; 3.34 µM in assay [2]; 7.75 µM in assay [3]; 9.25 µM in assay [4]; 3.4 µM in assay [5]; 7.65 µM in assay [6]. Further, the values for the TGI in assay [7] and in assay [8] were 6.54 µM and 50.3 µM, respectively.
Regarding `CCCCCCc1cc2cc(-c3nc4ccccc4[nH]3)c(=Nc3ccccc3C)oc2cc1O`, the GI50 in assay [1] was 2.12 µM; in assay [2], 4.02 µM; in assay [3], 2.17 µM; in assay [4] it was 2.12 µM; in assay [5], 1.85 µM; in assay [6], 3.64 µM. The results for the GI50 in assay [7] and in assay [8] were more than 100 µM and 3.1 µM, respectively. Besides, the TGI in assay [1] was found to be 5.25 µM; in assay [2] it was 16.8 µM; in assay [3], 5.34 µM; in assay [4], 4.77 µM; in assay [5], 3.95 µM; in assay [6], 29 µM. Besides, the TGI in assay [7] is more than 100 µM; in assay [8], 9.29 µM.
Consider `CCCCOc1ccc(NC(=O)n2nc(N)c3ccccc32)cc1`, for which the GI50 in assay [1] is 17 µM; in assay [2] it was 20.1 µM; in assay [3], 16.9 µM; in assay [4] it was 13 µM; in assay [5], 25.8 µM; in assay [6], 21.9 µM. For the same molecule, the GI50 was 9.98 µM in assay [7] and 11.5 µM in assay [8]. Besides, the TGI is more than 88.2 µM in assay [1]; 49.4 µM in assay [2]; 70.4 µM in assay [3]; 31.2 µM in assay [4]; 61.2 µM in assay [5]; 68.4 µM in assay [6]. The TGI in assay [7] came to 26 µM; in assay [8], 50.4 µM.
With `COc1cc2c3c(n(CCCN(CCN)CCCn4c5c(c6cc(OC)c(OC)cc6c4=O)C(=O)c4cc6c(cc4-5)OCO6)c(=O)c2cc1OC)-c1cc2c(cc1C3=O)OCO2`, the GI50 is 0.457 µM in assay [1]; 6.71 µM in assay [2]; 8.43 µM in assay [3]; 0.469 µM in assay [4]; 3.39 µM in assay [5]; 3.78 µM in assay [6]. For the same molecule, the GI50 in assay [7] was 2.52 µM; in assay [8] it was 2.73 µM. For the same molecule, the TGI in assay [1] is more than 100 µM; in assay [2], 25.7 µM; in assay [3], more than 100 µM; in assay [4], 13.6 µM; in assay [5], 12.7 µM; in assay [6], 18.9 µM. The TGI in assay [7] was more than 37 µM; in assay [8], more than 32.5 µM.
As to `COc1cc2cc(C(=O)CCC(=O)O)sc2cc1OC`, the GI50 in assay [1] was more than 100 µM; in assay [2] it was 18.7 µM; in assay [3] it was more than 100 µM; in assay [4], more than 100 µM; in assay [5] it was 33.4 µM; in assay [6] it was more than 100 µM. The GI50 is 54.6 µM in assay [7] and more than 100 µM in assay [8]. For the same molecule, the TGI in assay [1] was more than 100 µM; in assay [2], 45.4 µM; in assay [3], more than 100 µM; in assay [4], more than 100 µM; in assay [5], more than 100 µM; in assay [6], more than 100 µM. Moreover, the TGI in assay [7] and in assay [8] was more than 100 µM each time.
With `Cc1nc(-c2ccccc2)c(Cc2ccccc2O)c(=O)[nH]1`, the TGI in assay [1], in assay [2], in assay [3], in assay [4], in assay [5] and in assay [6] was more than 100 µM throughout. Besides, the TGI in assay [7] and in assay [8] was more than 100 µM in each case.
Turning to `CC(C)c1c(C(=O)Nc2ccccc2)c(-c2ccccc2)c(-c2ccc(F)cc2)n1CC[C@@H]1CC=CC(=O)O1`, the GI50 in assay [1] is 2.58 µM; in assay [2] it was 4.92 µM; in assay [3], 1.88 µM; in assay [4], 2.05 µM; in assay [5] it was 1.62 µM; in assay [6], 2.05 µM. Moreover, the results for the GI50 in assay [7] and in assay [8] were 1.62 µM and 0.422 µM, respectively. In addition, the TGI in assay [1] worked out at 7.65 µM; in assay [2], 19.1 µM; in assay [3] it was 3.85 µM; in assay [4] it was 4.21 µM; in assay [5], 3.13 µM; in assay [6] it was 5.02 µM. Moreover, the results for the TGI in assay [7] and in assay [8] were 3.66 µM and 2.62 µM, respectively.
Regarding `N#Cc1ncc(-c2ccc(C(F)(F)F)cc2)c(NCc2cc(C(F)(F)F)cc(C(F)(F)F)c2)n1`, the GI50 in assay [1] was 3.35 µM; in assay [2] it was 2.08 µM; in assay [3], 3.52 µM; in assay [4], 3.02 µM; in assay [5] it was 3.37 µM; in assay [6] it was 8.9 µM. Moreover, the GI50 was 3.27 µM in assay [7] and 3.74 µM in assay [8]. The TGI in assay [1] is more than 100 µM; in assay [2], 7.71 µM; in assay [3] it was more than 100 µM; in assay [4], 10.2 µM; in assay [5] it was 20.1 µM; in assay [6] it was more than 100 µM. Also, the TGI in assay [7] and in assay [8] was more than 100 µM throughout.
On to `CC(=O)N1N=C(c2ccc(Nc3nc(Nc4ccc(Cl)cc4)nc(Nc4ccc(Cl)cc4)n3)cc2)CC1c1ccc([N+](=O)[O-])cc1` (centres undefined), for which the GI50 in assay [1] was 1.74 µM; in assay [2] it was 1.97 µM; in assay [3], 4.11 µM; in assay [4] it was 2.75 µM; in assay [5] it was 2.29 µM; in assay [6] it was 19.4 µM. For the same molecule, the GI50 in assay [7] was 4.74 µM; in assay [8] it was 2.65 µM. The TGI was 7.2 µM in assay [1]; 19.6 µM in assay [2]; more than 94.3 µM in assay [3]; 12.5 µM in assay [4]; 9.2 µM in assay [5]; more than 100 µM in assay [6]. The results for the TGI in assay [7] and in assay [8] were more than 95 µM and 28.7 µM, respectively.
For the molecule `O=C1c2cccnc2C(=O)C2C3C=CC(C3)C12` (centres undefined), the TGI in assay [1] turned out to be 13.2 µM; in assay [2], 44.7 µM; in assay [3], 34.8 µM; in assay [4], 15.6 µM; in assay [5] it was 10.3 µM; in assay [6] it was 35.8 µM. Moreover, the TGI in assay [7] was found to be 60.9 µM; in assay [8] it was 34.9 µM.
